Laboratory results: PubChem BioAssay (NCI)
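Cultured in 96-well plates, cells were exposed to test compound for 48 hours across five concentrations. TGI denotes the concentration required for complete inhibition of growth.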

Assays:
Test in all cases: growth of human tumour cells (NCI), 48 h
CAKI-1 renal = test system: CAKI-1 renal
U251 CNS = test system: U251 CNS
HS 578T breast = test system: HS 578T breast
UACC-257 melanoma = test system: UACC-257 melanoma
HCC-2998 colon = test system: HCC-2998 colon
OVCAR-4 ovarian = test system: OVCAR-4 ovarian
SN12C renal = test system: SN12C renal
NCI/ADR-RES ovarian = test system: NCI/ADR-RES ovarian
MDA-N = test system: MDA-N
RXF 393 renal = test system: RXF 393 renal
SK-MEL-28 melanoma = test system: SK-MEL-28 melanoma
SK-MEL-5 melanoma = test system: SK-MEL-5 melanoma
OVCAR-8 ovarian = test system: OVCAR-8 ovarian
SNB-75 CNS = test system: SNB-75 CNS
HT29 colon = test system: HT29 colon
SNB-19 CNS = test system: SNB-19 CNS
786-0 renal = test system: 786-0 renal
SK-OV-3 ovarian = test system: SK-OV-3 ovarian
SF-268 CNS = test system: SF-268 CNS
MOLT-4 leukemia = test system: MOLT-4 leukemia
LOX IMVI melanoma = test system: LOX IMVI melanoma
MDA-MB-231 breast = test system: MDA-MB-231 breast
PC-3 prostate = test system: PC-3 prostate
EKVX NSCLC = test system: EKVX NSCLC
SW-620 colon = test system: SW-620 colon
HCT-116 colon = test system: HCT-116 colon
DU-145 prostate = test system: DU-145 prostate
COLO 205 colon = test system: COLO 205 colon
ACHN renal = test system: ACHN renal
KM12 colon = test system: KM12 colon
SF-539 CNS = test system: SF-539 CNS
A498 renal = test system: A498 renal
HOP-92 NSCLC = test system: HOP-92 NSCLC
MDA-MB-435 = test system: MDA-MB-435
K-562 leukemia = test system: K-562 leukemia
M14 melanoma = test system: M14 melanoma
UACC-62 melanoma = test system: UACC-62 melanoma
T-47D breast = test system: T-47D breast
SF-295 CNS = test system: SF-295 CNS
HCT-15 colon = test system: HCT-15 colon
OVCAR-5 ovarian = test system: OVCAR-5 ovarian
NCI-H460 lung = test system: NCI-H460 lung
OVCAR-3 ovarian = test system: OVCAR-3 ovarian
SK-MEL-2 melanoma = test system: SK-MEL-2 melanoma
SR leukemia = test system: SR leukemia
A549 NSCLC = test system: A549 NSCLC
TK-10 renal = test system: TK-10 renal
IGROV1 ovarian = test system: IGROV1 ovarian
CCRF-CEM leukemia = test system: CCRF-CEM leukemia
NCI-H23 lung = test system: NCI-H23 lung
UO-31 renal = test system: UO-31 renal
HOP-62 NSCLC = test system: HOP-62 NSCLC
BT-549 breast = test system: BT-549 breast
NCI-H226 lung = test system: NCI-H226 lung
HL-60(TB) leukemia = test system: HL-60(TB) leukemia
MALME-3M melanoma = test system: MALME-3M melanoma
NCI-H522 lung = test system: NCI-H522 lung
RPMI-8226 leukemia = test system: RPMI-8226 leukemia
MCF7 breast = test system: MCF7 breast

## CCCC(=O)N(C(=O)CCC)C1=C(Cl)C(=O)c2ccccc2C1=O
CAKI-1 renal
  TGI: 5.79 µM
U251 CNS
  TGI: 23.5 µM
HS 578T breast
  TGI: 79.7 µM
UACC-257 melanoma
  TGI: 11.6 µM
HCC-2998 colon
  TGI: 16.4 µM
OVCAR-4 ovarian
  TGI: 82.8 µM
SN12C renal
  TGI: 52.5 µM
NCI/ADR-RES ovarian
  TGI: 61.3 µM
MDA-N
  TGI: 28.2 µM
RXF 393 renal
  TGI: 7.1 µM
SK-MEL-28 melanoma
  TGI: 13.6 µM
SK-MEL-5 melanoma
  TGI: > 23.9 µM
OVCAR-8 ovarian
  TGI: 25.3 µM
SNB-75 CNS
  TGI: 15.3 µM
HT29 colon
  TGI: 31.2 µM
SNB-19 CNS
  TGI: 24.4 µM
786-0 renal
  TGI: 30.8 µM
SK-OV-3 ovarian
  TGI: 34.4 µM
SF-268 CNS
  TGI: > 45.2 µM
MOLT-4 leukemia
  TGI: 10.7 µM
LOX IMVI melanoma
  TGI: 17.8 µM
MDA-MB-231 breast
  TGI: > 67.5 µM
PC-3 prostate
  TGI: 40 µM
EKVX NSCLC
  TGI: > 42.5 µM
SW-620 colon
  TGI: 14.5 µM
HCT-116 colon
  TGI: > 33.1 µM
DU-145 prostate
  TGI: 45.1 µM
COLO 205 colon
  TGI: > 23.3 µM
ACHN renal
  TGI: 2.71 µM
KM12 colon
  TGI: 15.5 µM
SF-539 CNS
  TGI: 15.4 µM
A498 renal
  TGI: 37.6 µM
HOP-92 NSCLC
  TGI: 45 µM
MDA-MB-435
  TGI: 21.4 µM
K-562 leukemia
  TGI: 5.01 µM
M14 melanoma
  TGI: 25.8 µM
UACC-62 melanoma
  TGI: 11.1 µM
T-47D breast
  TGI: > 100 µM
SF-295 CNS
  TGI: 33.3 µM
HCT-15 colon
  TGI: 14.2 µM
OVCAR-5 ovarian
  TGI: 26 µM
NCI-H460 lung
  TGI: 29.3 µM
OVCAR-3 ovarian
  TGI: 11.8 µM
SK-MEL-2 melanoma
  TGI: 24 µM
SR leukemia
  TGI: > 54.1 µM
A549 NSCLC
  TGI: > 52.8 µM
TK-10 renal
  TGI: 14.8 µM
IGROV1 ovarian
  TGI: 20.9 µM
CCRF-CEM leukemia
  TGI: > 26.7 µM
NCI-H23 lung
  TGI: 15.8 µM
UO-31 renal
  TGI: 4.75 µM
HOP-62 NSCLC
  TGI: 24.1 µM
BT-549 breast
  TGI: 10.3 µM
NCI-H226 lung
  TGI: 23.8 µM

## C[n+]1c2ccccc2n2c3ccccc3c(NCCCN3CCOCC3)c(C#N)c21
CAKI-1 renal
  TGI: 8.38 µM
U251 CNS
  TGI: > 28.4 µM
HS 578T breast
  TGI: 6.47 µM
UACC-257 melanoma
  TGI: 16.7 µM
HCC-2998 colon
  TGI: 3 µM
OVCAR-4 ovarian
  TGI: 8.81 µM
SN12C renal
  TGI: 6.44 µM
NCI/ADR-RES ovarian
  TGI: > 76.8 µM
MDA-N
  TGI: 2.9 µM
RXF 393 renal
  TGI: 3.91 µM
SK-MEL-28 melanoma
  TGI: > 20.4 µM
SK-MEL-5 melanoma
  TGI: 9.87 µM
SNB-75 CNS
  TGI: 5.4 µM
HT29 colon
  TGI: > 100 µM
SNB-19 CNS
  TGI: > 26.8 µM
786-0 renal
  TGI: 8.32 µM
SK-OV-3 ovarian
  TGI: 31.9 µM
SF-268 CNS
  TGI: 5.39 µM
HL-60(TB) leukemia
  TGI: > 100 µM
LOX IMVI melanoma
  TGI: 2.64 µM
MDA-MB-231 breast
  TGI: 4.94 µM
PC-3 prostate
  TGI: > 30 µM
EKVX NSCLC
  TGI: 15.1 µM
SW-620 colon
  TGI: 36.6 µM
HCT-116 colon
  TGI: 8.32 µM
DU-145 prostate
  TGI: 18.2 µM
COLO 205 colon
  TGI: 3.15 µM
MALME-3M melanoma
  TGI: 3.96 µM
ACHN renal
  TGI: > 25.5 µM
KM12 colon
  TGI: 15.8 µM
SF-539 CNS
  TGI: 3.57 µM
A498 renal
  TGI: > 29 µM
HOP-92 NSCLC
  TGI: > 100 µM
MDA-MB-435
  TGI: 14.1 µM
M14 melanoma
  TGI: 2.85 µM
UACC-62 melanoma
  TGI: 13.8 µM
T-47D breast
  TGI: > 26.3 µM
SF-295 CNS
  TGI: 14.8 µM
HCT-15 colon
  TGI: 19.4 µM
OVCAR-5 ovarian
  TGI: 5.61 µM
NCI-H460 lung
  TGI: 2.75 µM
OVCAR-3 ovarian
  TGI: > 28.1 µM
SK-MEL-2 melanoma
  TGI: 6.42 µM
SR leukemia
  TGI: > 100 µM
A549 NSCLC
  TGI: 23.8 µM
NCI-H522 lung
  TGI: 2.25 µM
TK-10 renal
  TGI: 10.8 µM
CCRF-CEM leukemia
  TGI: > 100 µM
NCI-H23 lung
  TGI: 8.08 µM
UO-31 renal
  TGI: 15.3 µM
HOP-62 NSCLC
  TGI: > 33.5 µM
BT-549 breast
  TGI: > 100 µM
NCI-H226 lung
  TGI: 6.2 µM

## CC(C)=CC(O)C(C(O)CCC1(C)OCCO1)S(=O)(=O)c1ccccc1 (stereo unspecified)
CAKI-1 renal
  TGI: > 100 µM
U251 CNS
  TGI: > 100 µM
UACC-257 melanoma
  TGI: > 100 µM
HCC-2998 colon
  TGI: > 100 µM
OVCAR-4 ovarian
  TGI: > 100 µM
SN12C renal
  TGI: > 100 µM
NCI/ADR-RES ovarian
  TGI: > 100 µM
MDA-N
  TGI: > 100 µM
RXF 393 renal
  TGI: > 100 µM
SK-MEL-28 melanoma
  TGI: > 100 µM
OVCAR-8 ovarian
  TGI: > 100 µM
SNB-75 CNS
  TGI: > 100 µM
SNB-19 CNS
  TGI: > 100 µM
786-0 renal
  TGI: > 100 µM
SK-OV-3 ovarian
  TGI: > 100 µM
SF-268 CNS
  TGI: > 100 µM
LOX IMVI melanoma
  TGI: > 100 µM
MDA-MB-231 breast
  TGI: > 100 µM
PC-3 prostate
  TGI: > 100 µM
EKVX NSCLC
  TGI: > 100 µM
SW-620 colon
  TGI: > 100 µM
HCT-116 colon
  TGI: > 100 µM
COLO 205 colon
  TGI: > 100 µM
MALME-3M melanoma
  TGI: > 100 µM
ACHN renal
  TGI: > 100 µM
KM12 colon
  TGI: > 100 µM
SF-539 CNS
  TGI: > 100 µM
A498 renal
  TGI: > 100 µM
MDA-MB-435
  TGI: > 100 µM
M14 melanoma
  TGI: > 100 µM
T-47D breast
  TGI: > 100 µM
RPMI-8226 leukemia
  TGI: > 100 µM
SF-295 CNS
  TGI: > 100 µM
HCT-15 colon
  TGI: > 100 µM
OVCAR-5 ovarian
  TGI: > 100 µM
NCI-H460 lung
  TGI: > 100 µM
OVCAR-3 ovarian
  TGI: > 100 µM
MCF7 breast
  TGI: > 100 µM
SK-MEL-2 melanoma
  TGI: > 100 µM
A549 NSCLC
  TGI: > 100 µM
NCI-H522 lung
  TGI: > 100 µM
TK-10 renal
  TGI: > 100 µM
IGROV1 ovarian
  TGI: > 100 µM
CCRF-CEM leukemia
  TGI: > 100 µM
NCI-H23 lung
  TGI: > 100 µM
UO-31 renal
  TGI: > 100 µM
HOP-62 NSCLC
  TGI: > 100 µM
BT-549 breast
  TGI: > 100 µM
NCI-H226 lung
  TGI: > 100 µM
